Results published in US11752155B2, “Treatment of autism spectrum disorders, obsessive-compulsive disorder and anxiety disorders” (Rugen Holdings (Cayman) Limited, priority 2016, dated 2023).
Where “and” joins values, the source holds several entries; their conditions need not be identical. Identical values can stand only once. Like-named read-outs stand apart in the source and are kept apart here.

What was measured:
[1] = system: wild type mice (male C57Bl/6); experiment: Novelty Phobia Test in wild type mice; type: in vivo, mouse; details: for change in vivo at 0.3 mg/kg / change in vivo at 1 mg/kg / change in vivo at 30 mg/kg / change in vivo at 3 mg/kg / change in vivo at 10 mg/kg: Mus musculus, ip, IP, read-out: Percent Change in Novel Object Number of Nose Touches relative to vehicle control; for pattern of the dose-response function for bouts of nose touching: mouse, in vivo
Description: Animals. Male C57Bl/6 mice (18-30 g body weight; 6-8 weeks of age) were obtained from Slaccas (Shanghai, China) and allowed to acclimate to the animal facility for 7 days. Mice were group housed in plastic cages (no more than 4 animals per cage) on wood shavings with nesting material. All animals had free access to food (M01-F, Slaccas) and water. The animal facility was maintained under artificial lighting between 7:00 AM and 7:00 PM in a controlled ambient temperature of 22-24° C. and relative humidity between 50-60%.
Compound formulation. The test compounds were prepared in a vehicle of DMSO and HP-β-CD, and administered IP or PO. The test compounds or vehicle were administered at various times (10-20 minutes) before the behavioral test described below. Dosing volume was 10 mL/kg.
Testing procedure. The behavioral testing apparatus was a rectangular black Plexiglas, 2-chambered box, with no top or bottom (50 cm long, 26 cm wide and 15 cm tall) and allowed for the simultaneous testing of 2 mice. The box was placed on a laboratory bench. The chambers of the testing box were cleaned and fresh paper chip bedding was added between tests. Mice were brought to the experiment room in their home cages on the day of testing. Behavioral tests were conducted between 10:00 AM and 1:00 PM in dim light. After drug administration, a mouse was placed into a test chamber and allowed to explore for 10 minutes. After this habituation period, a novel object (e.g., a toy ball of 3 cm in diameter with spikes) was introduced to the center of the chamber for 5 minutes. For the entire 15-minute test period, video was recorded for offline analysis with Any-maze Video Tracking software (Stoelting Co., Wood Dale, Ill.). The total distance traveled during the entire 15 minutes and the number of bouts that each mouse touched the novel object during the last 5 minutes were measured.
Statistical analyses. Data are presented as means and SEMs. Data were analyzed using one-way analysis of variance (ANOVA; Prism, GraphPad Software Inc., San Diego, Calif.), followed by the post-hoc Dunnett's test to compare test compound-treated groups with the vehicle control. A p value<0.05 was considered significant.

[2] = system: wild type mice (male NMRI); experiment: Marble Burying Test in wild type mice; type: in vivo, mouse
Procedure, shortened: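 Male NMRI mice, 12 per group, received compound in 0.5% DMSO/4% HP-β-CD PO or IP 20 min before test. Marbles (25) buried two-thirds or more in sawdust were counted over a blind 30-min session. Groups were compared with vehicle by Kruskal-Wallis then Mann-Whitney U.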

hERG channel = hERG channel (Homo sapiens (Human), UniProt Q12809); experiment: hERG channel inhibition, whole cell patch clamp in HEK293 cells; type: cell-based; details: for inhibition at 5 min, 10 µM: human, HEK293 cells stably expressing hERG channel, pH 7.35
Chain of hERG channel (Q12809 whole entry): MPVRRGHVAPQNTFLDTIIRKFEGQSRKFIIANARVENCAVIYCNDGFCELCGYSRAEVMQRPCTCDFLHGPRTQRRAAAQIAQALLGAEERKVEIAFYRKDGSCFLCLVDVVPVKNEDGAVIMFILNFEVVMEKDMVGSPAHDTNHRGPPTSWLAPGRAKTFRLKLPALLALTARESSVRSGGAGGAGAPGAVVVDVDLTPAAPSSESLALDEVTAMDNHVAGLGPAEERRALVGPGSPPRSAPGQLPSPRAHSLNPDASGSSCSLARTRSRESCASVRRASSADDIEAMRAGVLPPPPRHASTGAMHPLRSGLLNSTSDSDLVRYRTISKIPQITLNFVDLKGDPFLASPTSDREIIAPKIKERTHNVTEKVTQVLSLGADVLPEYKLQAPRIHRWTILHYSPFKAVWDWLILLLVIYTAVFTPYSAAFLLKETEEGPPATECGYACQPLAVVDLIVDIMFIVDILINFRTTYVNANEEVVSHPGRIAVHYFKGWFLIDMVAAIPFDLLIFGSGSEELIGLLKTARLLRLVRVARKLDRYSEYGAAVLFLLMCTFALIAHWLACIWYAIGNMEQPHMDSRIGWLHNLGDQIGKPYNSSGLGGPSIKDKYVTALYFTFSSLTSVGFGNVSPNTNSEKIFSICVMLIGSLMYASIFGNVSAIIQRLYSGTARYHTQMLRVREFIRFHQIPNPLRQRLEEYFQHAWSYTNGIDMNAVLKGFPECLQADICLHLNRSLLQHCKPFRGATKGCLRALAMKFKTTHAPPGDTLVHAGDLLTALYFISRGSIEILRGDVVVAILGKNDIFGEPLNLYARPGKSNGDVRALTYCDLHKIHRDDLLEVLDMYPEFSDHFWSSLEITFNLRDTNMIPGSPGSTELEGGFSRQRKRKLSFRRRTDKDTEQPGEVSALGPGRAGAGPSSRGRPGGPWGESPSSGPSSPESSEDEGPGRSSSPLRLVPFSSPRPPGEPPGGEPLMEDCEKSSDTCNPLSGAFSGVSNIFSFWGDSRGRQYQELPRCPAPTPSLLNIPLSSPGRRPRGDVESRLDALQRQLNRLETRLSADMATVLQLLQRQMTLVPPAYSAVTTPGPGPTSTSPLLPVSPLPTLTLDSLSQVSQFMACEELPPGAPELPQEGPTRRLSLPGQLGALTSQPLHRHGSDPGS
Description: The assay was performed on hERG channel stably expressed in HEK293 cells. The cells were cultured at 37° C. in a humidified CO2 incubator in the growth medium consisting of DMEM, 10% fetal bovine serum and antibiotics. Prior to the assay, the cells were seeded onto a 12-mm PDL-coated glass coverslip and cultured in a 35-mm Petri dish. After 16 to 40 hours culture, the coverslip was transferred into the chamber of OctaFlow perfusion system (ALA Instrument) and under a constant flow of extracellular solution (140 mM NaCl, 4 mM KCl, 1 mM MgCl2, 2 mM CaCl2, 10 mM HEPES, 10 mM D-glucose, pH 7.35, osmolarity 290). Whole cell patch clamping was performed with a glass micropipette filled with intracellular solution (120 mM KCl, 1.75 mM MgCl2, 5.4 mM CaCl2, 10 mM HEPES, 10 mM EGTA, and 4 mM ATP-K2, pH 7.2, osmolarity 310). Giga-seal was maintained during the test. The voltage control and current measurement were carried out using Axon amplifier 700B, Digidata 1440A and CLAMPEX10 software (Molecular Devices). Whole-cell hERG currents were recorded following the Petroski protocol: the cell was held at −80 mV, and the voltage step jumped from −80 to 30 mV and stay for 2 seconds with a 20-millisecond prepulse at −40 mV. After depolarization, the voltage was decreased to −40 mV and stay for 2 seconds, and returned back to −80 mV. Test compound was applied by quartz capillary tubes tip (200 m inner diameter), and the flow rate was controlled at 2-3 mL/min with OctaFlow perfusion system. Different concentrations of the compound were applied to the cells for 5 minutes and the hERG current was measured three times before, during and after compound treatment. The data were analyzed using Clampfit 10 software (Molecular Devices) to generate IC50 values.

[3] = Mus musculus, ip, read-out: Percent Change in marbles buried relative to vehicle
[4] = Mus musculus, po, read-out: Percent Change in marbles buried relative to vehicle

Structure (SMILES)	change in vivo at 3 mg/kg ([1]; 20 min, pre-test time 20 min) [%]	pattern of the dose-response function for bouts of nose touching [1]	change in vivo at 0.316 mg/kg [2, 3] [%]	change in vivo at 3 mg/kg [2, 3] [%]	change in vivo at 10 mg/kg [2, 3] [%]	change in vivo at 1 mg/kg [2, 4] [%]	change in vivo at 3 mg/kg [2, 4] [%]	change in vivo at 10 mg/kg [2, 4] [%]	IC50 (hERG channel; Table 1.3B)	inhibition at 5 min, 10 µM (hERG channel) [%]	change in vivo at 10 mg/kg ([1]; 20 min, pre-test time 20 min) [%]	change in vivo at 30 mg/kg ([1]; 20 min, pre-test time 20 min) [%]	further results
FC(F)c1ccc(C(F)(F)CN2CCC(Nc3ncnc4[nH]ccc34)CC2)cc1 [C-179^A′]	164	inverted U-shaped dose-response function	9	-96	-94	-1.1	-81	-99					change in vivo at 0.3 mg/kg ([1]; 0.25 h, pre-test time 15 min): -12%; change in vivo at 1 mg/kg ([1]; 0.25 h, pre-test time 15 min): 64.7%; change in vivo at 30 mg/kg ([1]; 0.25 h, pre-test time 15 min): 28%; change in vivo at 0.3 mg/kg ([1]; 20 min, pre-test time 20 min): 51.7%; change in vivo at 1 mg/kg ([1]; 20 min, pre-test time 20 min): 139%; change in vivo at 1.78 mg/kg ([2]; Mus musculus, po, 1.78 mg/kg, read-out: Percent Change in marbles buried relative to vehicle): -81%; IC50 (hERG channel; Table 1.3A): 1.4 µM
Cc1ccc(COC(=O)N2CC[C@H](CNc3nccn4cnnc34)C(F)(F)C2)cc1 [E1-1.2^B′]		dose-dependent increases							40 µM	17			change in vivo at 0.3 mg/kg ([1]; 10 min, pre-test time 10 min): 16.1%; change in vivo at 10 mg/kg ([1]; 10 min, pre-test time 10 min): 218%
Cc1ccc(COC(=O)N2CC[C@H](CNc3cnc(C)cn3)C(F)(F)C2)cc1 [E1-21.26^B′]	141	dose-dependent increases	-14	-97	-96	8	-41	-78		39	149	171	
Cc1ccc(COC(=O)N2CC[C@H](CNc3ncccn3)C(F)(F)C2)cc1 [E1-22.2^B′]	163		-68	-93	-97		-88	-99	> 10 µM and 17 µM		115	98.9	change in vivo at 0.03 mg/kg ([2]; Mus musculus, ip, 0.03 mg/kg, read-out: Percent Change in marbles buried relative to vehicle): -9%; change in vivo at 0.1 mg/kg [2, 3]: -13%; change in vivo at 0.3 mg/kg [2, 3]: -92%; change in vivo at 0.1 mg/kg [2, 4]: 14%; change in vivo at 0.3 mg/kg [2, 4]: 16%; efficacy in the Marble Burying Test ([2]; lowest test concentration of 1 mg/kg, IP): fully efficacious
